Reference: PMC11287286 (Proceedings of the National Academy of Sciences of the …, 2024)

How the values were obtained:
CB1^ECL2/CB2^other = assay: GloSensor cAMP assay, chimeric construct; assay type: cell-based, human; conditions: vs wild-type CB2
CB1 D176^2.63N = CB1 D176^2.63N (Homo sapiens, UniProt P21554, D176N)
CB2-M293^7.47T&S47^1.46T = CB2-M293^7.47T&S47^1.46T (Homo sapiens, UniProt P34972, M293T/S47T); assay: GloSensor cAMP assay, CB2 double mutant; assay type: cell-based
CB2^ECL2/CB1^other = assay: GloSensor cAMP assay, chimeric construct; assay type: cell-based, human; conditions: vs wild-type CB1

Sequence of CB2-M293^7.47T&S47^1.46T (P34972 whole entry S47T/M293T): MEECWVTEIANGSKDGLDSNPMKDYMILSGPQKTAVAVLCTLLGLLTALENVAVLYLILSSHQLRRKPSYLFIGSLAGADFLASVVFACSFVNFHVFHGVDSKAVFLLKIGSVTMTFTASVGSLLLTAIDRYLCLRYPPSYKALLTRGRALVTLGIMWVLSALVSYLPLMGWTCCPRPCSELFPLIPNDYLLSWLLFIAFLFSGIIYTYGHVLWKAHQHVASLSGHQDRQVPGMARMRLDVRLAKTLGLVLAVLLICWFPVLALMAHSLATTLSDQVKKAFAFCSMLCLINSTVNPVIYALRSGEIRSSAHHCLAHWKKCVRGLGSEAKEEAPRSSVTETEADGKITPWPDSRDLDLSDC
Sequence of CB1 D176^2.63N (P21554 whole entry D176N): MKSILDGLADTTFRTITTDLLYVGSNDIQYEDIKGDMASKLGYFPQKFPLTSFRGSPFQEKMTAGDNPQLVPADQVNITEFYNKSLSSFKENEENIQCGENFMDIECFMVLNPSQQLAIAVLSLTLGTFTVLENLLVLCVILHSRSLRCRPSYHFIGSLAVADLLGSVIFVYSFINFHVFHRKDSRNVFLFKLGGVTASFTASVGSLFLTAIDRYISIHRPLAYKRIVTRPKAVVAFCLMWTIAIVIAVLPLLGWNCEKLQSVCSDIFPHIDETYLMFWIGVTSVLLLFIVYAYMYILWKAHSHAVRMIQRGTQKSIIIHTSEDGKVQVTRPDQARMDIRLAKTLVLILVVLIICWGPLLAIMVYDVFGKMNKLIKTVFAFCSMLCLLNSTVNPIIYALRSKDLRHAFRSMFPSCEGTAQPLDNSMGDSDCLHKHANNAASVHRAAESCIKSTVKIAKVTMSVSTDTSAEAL

`CCCCCCC(C)(C)c1ccc([C@@H]2C[C@H](O)CC[C@H]2CCCO)c(O)c1` [CP55,940] was tested, and the “effect of ECL2 replacement on EC50” value (CB1^ECL2/CB2^other) was “no effect on the EC50”, the “activity vs wild-type CB1” value (CB1 D176^2.63N) was “significantly reduces the activity” and the “activity vs wild-type CB2” value (CB2-M293^7.47T&S47^1.46T) was “remained essentially unchanged”. For the same compound, the “activation of CB1 receptor containing the CB2 ECL2 loop” value (CB2^ECL2/CB1^other) was “same potency as wild-type CB1”.
